According to US11897904B2, “Herbicidally active bicyclic benzamides” (Bayer Aktiengesellschaft, priority 2017, dated 2024):

Columns and labels:
AMARE [1] = assay: Post-emergence herbicidal action; assay type: in vivo, Amaranthus retroflexus; conditions: rated visually after about 3 weeks vs untreated controls
Description: (§1) 2. Post-Emergence Herbicidal Action and Crop Plant Compatibility
(§2) Seeds of monocotyledonous and dicotyledonous weeds and crop plants are placed in sandy loam in plastic or organic planting pots, covered with soil and cultivated in a greenhouse under controlled growth conditions. 2 to 3 weeks after sowing, the test plants are treated at the one-leaf stage. The compounds of the invention, formulated in the form of wettable powders (WP) or as emulsion concentrates (EC), are then sprayed onto the green parts of the plants as aqueous suspension or emulsion with addition of 0.5% additive at a water application rate of […] (converted). After the test plants had been kept in the greenhouse under optimum growth conditions for about 3 weeks, the activity of the preparations is rated visually in comparison to untreated controls. The tables below show the herbicidal activity of numerous compounds according to the invention against important harmful plants. For example, 100% activity=the plants have died, 0% activity=like control plants.

STEME [2] = assay: Post-emergence herbicidal action; assay type: in vivo, Stellaria media; conditions: 80 g/ha, rated visually after about 3 weeks vs untreated controls
Description: as §1, §2

ABUTH [3] = assay: Post-emergence herbicidal action; assay type: in vivo, Abutilon theophrasti; conditions: post-emergence, rated visually after about 3 weeks vs untreated controls
Description: as §1, §2

VERPE [4] = assay: Post-emergence herbicidal action; assay type: in vivo, Veronica persica; conditions: rated visually after about 3 weeks vs untreated controls
Description: as §1, §2

VIOTR [5] = assay: Pre-emergence herbicidal action; assay type: in vivo, Viola tricolor; conditions: scored visually after about 3 weeks vs untreated controls
Text: (§3) 1. Pre-Emergence Herbicidal Action and Crop Plant Compatibility
(§4) Seeds of monocotyledonous and dicotyledonous weed plants and crop plants are placed in plastic or organic planting pots and covered with soil. The compounds of the invention, formulated in the form of wettable powders (WP) or as emulsion concentrates (EC), are then applied onto the surface of the covering soil as aqueous suspension or emulsion with addition of 0.5% additive at a water application rate of 600 l/ha (converted). After the treatment, the pots are placed in a greenhouse and kept under good growth conditions for the trial plants. After about 3 weeks, the effect of the preparations is scored visually in comparison with untreated controls as percentages. The tables below show the herbicidal activity of numerous compounds according to the invention against important harmful plants. For example, 100% activity=the plants have died, 0% activity=like control plants.

SETVI [6] = assay: Post-emergence herbicidal action; assay type: in vivo, Setaria viridis; conditions: rated visually after about 3 weeks vs untreated controls
Description: as §1, §2

AMARE [7] = assay: Pre-emergence herbicidal action; assay type: in vivo, Amaranthus retroflexus; conditions: scored visually after about 3 weeks vs untreated controls
Text: as §3, §4

MATIN = assay: Post-emergence herbicidal action; assay type: in vivo, Matricaria inodora; conditions: 80 g/ha, rated visually after about 3 weeks vs untreated controls
Description: as §1, §2

ECHCG = assay: Post-emergence herbicidal action; assay type: in vivo, Echinochloa crus-galli; conditions: rated visually after about 3 weeks vs untreated controls
Description: as §1, §2

VIOTR [8] = assay: Post-emergence herbicidal action; assay type: in vivo, Viola tricolor; conditions: rated visually after about 3 weeks vs untreated controls
Description: as §1, §2

CYPES = assay: Pre-emergence herbicidal action; assay type: in vivo, Cyperus esculentus; conditions: dosage 320 g/ha, scored visually after about 3 weeks vs untreated controls, 100% = plants have died, 0% = like control plants
Text: as §3, §4

VERPE [9] = assay: Pre-emergence herbicidal action; assay type: in vivo, Veronica persica; conditions: scored visually after about 3 weeks vs untreated controls
Text: as §3, §4

ABUTH [10] = assay: Pre-emergence herbicidal action; assay type: in vivo, Abutilon theophrasti; conditions: pre-emergence, scored visually after about 3 weeks vs untreated controls
Text: as §3, §4

PHBPU = assay: Post-emergence herbicidal action; assay type: in vivo, Ipomoea purpurea; conditions: rated visually after about 3 weeks vs untreated controls
Description: as §1, §2

STEME [11] = assay: Pre-emergence herbicidal action; assay type: in vivo, Stellaria media; conditions: scored visually after about 3 weeks vs untreated controls
Text: as §3, §4

SETVI [12] = assay: Pre-emergence herbicidal action; assay type: in vivo, Setaria viridis; conditions: pre-emergence, 320 g/ha, scored visually after about 3 weeks vs untreated controls
Text: as §3, §4

SMILES: CCn1nnnc1NC(=O)c1ccc(C(F)F)c2c1OCS2 [Example 3-53]
- herbicidal activity AMARE (AMARE [1]; 80 g/ha): 100%
- herbicidal activity STEME (STEME [2]): 90%
- herbicidal activity ABUTH (ABUTH [3]; 80 g/ha): 90%
- herbicidal activity VERPE (VERPE [4]; 80 g/ha): 80%
- herbicidal activity VIOTR (VIOTR [5]; 320 g/ha): 100%
- herbicidal activity SETVI (SETVI [6]; 80 g/ha): 80%
- herbicidal activity AMARE (AMARE [7]; 320 g/ha): 90%
- herbicidal activity MATIN (MATIN): 80%
- herbicidal activity ECHCG (ECHCG; 80 g/ha): 80%
- herbicidal activity VIOTR (VIOTR [8]; 80 g/ha): 90%

SMILES: Cn1ncnc1NC(=O)c1ccc(C(F)(F)F)c2c1OCS2 [Example 1-35]
- herbicidal activity ABUTH (ABUTH [3]; 20 g/ha): 80%
- herbicidal activity VIOTR (VIOTR [8]; 20 g/ha): 80%

SMILES: Cc1ccc(C(=O)Nc2nnnn2C)c2c1[S+]([O-])CO2 (stereo not shown) [Example 2-65]
- herbicidal activity AMARE (AMARE [7]; 320 g/ha): 90%
- herbicidal activity CYPES (CYPES): 90%
- herbicidal activity VERPE (VERPE [9]; 320 g/ha): 80%

SMILES: COC1Oc2c(C(=O)Nc3nnnn3C)ccc(C(F)(F)F)c2S1 (stereo not shown) [Example 2-112, 2-methoxy-4-(trifluoromethyl)-1,3-benzoxathiolane-N-(1-methyltetrazol-5-yl)-7-carboxamide]
- herbicidal activity AMARE (AMARE [1]; 20 g/ha): 80%
- herbicidal activity ABUTH (ABUTH [10]; 80 g/ha): 100%
- herbicidal activity ABUTH (ABUTH [3]; 20 g/ha): 90%
- herbicidal activity VERPE (VERPE [4]; 20 g/ha): 80%
- herbicidal activity VIOTR (VIOTR [5]; 80 g/ha): 100%
- herbicidal activity SETVI (SETVI [6]; 20 g/ha): 80%
- herbicidal activity AMARE (AMARE [7]; 80 g/ha): 90%
- herbicidal activity ECHCG (ECHCG; 20 g/ha): 80%
- herbicidal activity VERPE (VERPE [9]; 80 g/ha): 80%

SMILES: Cn1ncnc1NC(=O)c1ccc(C(F)(F)F)c2c1OCS2(=O)=O [Example 1-65]
- herbicidal activity AMARE (AMARE [1]; 20 g/ha): 80%
- herbicidal activity PHBPU (PHBPU; 20 g/ha): 80%

SMILES: Cn1nnnc1NC(=O)c1ccc(C(F)F)c2c1OCS2 [Example 2-54]
- herbicidal activity AMARE (AMARE [1]; 80 g/ha): 90%
- herbicidal activity PHBPU (PHBPU; 80 g/ha): 80%
- herbicidal activity ABUTH (ABUTH [3]; 80 g/ha): 80%
- herbicidal activity VERPE (VERPE [4]; 80 g/ha): 90%
- herbicidal activity SETVI (SETVI [6]; 80 g/ha): 90%
- herbicidal activity AMARE (AMARE [7]; 320 g/ha): 80%
- herbicidal activity ECHCG (ECHCG; 80 g/ha): 100%
- herbicidal activity VIOTR (VIOTR [8]; 80 g/ha): 100%

SMILES: CC1Oc2c(C(=O)Nc3nnnn3C)ccc(C(F)(F)F)c2S1 (stereo not shown) [Example 2-94, 2-methyl-4-(trifluoromethyl)-1,3-benzoxathiolane-N-(1-methyltetrazol-5-yl)-7-carboxamide]
- herbicidal activity STEME (STEME [11]; 320 g/ha): 100%
- herbicidal activity AMARE (AMARE [1]; 80 g/ha): 90%
- herbicidal activity ABUTH (ABUTH [10]; 320 g/ha): 90%
- herbicidal activity STEME (STEME [2]): 100%
- herbicidal activity ABUTH (ABUTH [3]; 80 g/ha): 90%
- herbicidal activity VIOTR (VIOTR [5]; 320 g/ha): 100%
- herbicidal activity SETVI (SETVI [6]; 80 g/ha): 80%
- herbicidal activity AMARE (AMARE [7]; 320 g/ha): 100%
- herbicidal activity SETVI (SETVI [12]): 100%
- herbicidal activity ECHCG (ECHCG; 80 g/ha): 80%
- herbicidal activity VIOTR (VIOTR [8]; 80 g/ha): 80%

SMILES: COC1Sc2c(C(=O)Nc3nnnn3C)ccc(C(F)(F)F)c2S1 (stereo not shown) [Example 2-257]
- herbicidal activity ABUTH (ABUTH [3]; 20 g/ha): 90%
- herbicidal activity ECHCG (ECHCG; 20 g/ha): 100%
- herbicidal activity VIOTR (VIOTR [8]; 20 g/ha): 80%

SMILES: CCOC1Oc2c(C(=O)Nc3nnnn3C)ccc(C(F)(F)F)c2S1 (stereo not shown) [Example 2-130]
- herbicidal activity STEME (STEME [11]; 80 g/ha): 100%
- herbicidal activity ABUTH (ABUTH [10]; 80 g/ha): 100%
- herbicidal activity ABUTH (ABUTH [3]; 20 g/ha): 90%
- herbicidal activity VIOTR (VIOTR [5]; 80 g/ha): 100%
- herbicidal activity VIOTR (VIOTR [8]; 20 g/ha): 90%

SMILES: Cc1ccc(C(=O)Nc2nnnn2C)c2c1SCO2 [Example 2-50]
- herbicidal activity PHBPU (PHBPU; 80 g/ha): 80%

SMILES: Cn1nnnc1NC(=O)c1ccc(S(C)(=O)=O)c2c1OC(F)(F)O2 [Example 2-15]
- herbicidal activity AMARE (AMARE [1]; 80 g/ha): 80%
- herbicidal activity VERPE (VERPE [9]; 320 g/ha): 90%

SMILES: CSc1ccc(C(=O)Nc2nnnn2C)c2c1OC(F)(F)O2 [Example 2-13]
- herbicidal activity AMARE (AMARE [1]; 80 g/ha): 80%
- herbicidal activity STEME (STEME [2]): 80%
- herbicidal activity ABUTH (ABUTH [3]; 80 g/ha): 80%
- herbicidal activity VERPE (VERPE [4]; 80 g/ha): 90%
- herbicidal activity VERPE (VERPE [9]; 320 g/ha): 90%
